According to patent US20240317739A1, “NOVEL UREA DERIVATIVE COMPOUND AS RON INHIBITOR” (LG CHEM, LTD., priority 2021, published 2024):

Columns and labels:
RON = RON (Homo sapiens, UniProt Q04912); experiment: Evaluation of inhibitory activity against RON (TR-FRET); format: biochemical; conditions: TR-FRET kinase assay, RON protein
Description: In order to measure the inhibitory activity of each of the compounds of Examples against RON, the IC50 of each of the compounds was measured using a Time-Resolved Fluorescence Energy Transfer Chemistry (TR-FRET).
(§1) Specifically, the compound was prepared to a concentration of 1 mM with 100% DMSO and was diluted 10 times in a stepwise manner through 3-fold dilution. 2 ul of the compound diluted in a stepwise manner was added to a 96-well-plate containing 48 ul of a 1×kinase reaction buffer (50 mM HEPES (pH 7.4), 0.01% Tween-20, 5 mM DTT, 0.5 mM Na3VO4, 2 mM EGTA, 10 mM MgCl2).
The RON protein was diluted to a concentration of 49.3 nM with an RON storage buffer (50 mM Tris-HCl (pH 7.5), 150 mM NaCl, 0.5 mM EDTA, 0.02% Triton X-100), and then diluted again to a concentration of 0.4 nM with a 1×kinase reaction buffer. As a substrate cocktail, a RON-specific substrate mixture (40 uM ULight-labeled Poly GT, 100 nM ATP) at a concentration 2 times the final reaction concentration.
(§2) Thereafter, a 384-well-plate was prepared, and 2.5 μl of each of the diluted compounds of Examples was added to a corresponding well of experimental group wells, and 2.5 μl of a 4% DMSO solution was dispensed into high control wells and low control wells.
(§3) Thereafter, 2.5 μL of 0.4 nM RON was dispensed into the high control wells and the experimental group wells, and 2.5 μL of a 1× kinase reaction buffer was added to the low control wells, and the RON and the reaction buffer were centrifuged at room temperature for 40 seconds at 1000 RPM, and then incubated at room temperature for 20 to 30 minutes. Then, 5 uL of a substrate cocktail (2×) was dispensed into all wells, centrifuged at room temperature for 40 seconds at 1000 RPM, and then incubated at room temperature for 60 minutes. Thereafter, 5 uL of 30 mM EDTA was added to all wells to terminate the reaction, and then incubated again at room temperature for 5 minutes. Thereafter, 5 uL of a 4× phosphotyrosine antibody (Perkin Elmer) containing europium was added to all wells, and then incubated at room temperature for 60 minutes. After the incubation, the 384-well-plate was read with a Vison plate reader. At this time, the excitation wavelength was 340 nm, and the emission wavelength was 620 nm and 665 nm. The IC50 value of the compound of each Example was derived using the GraphPd Prism7 program.

cMET = cMET (Homo sapiens, UniProt P08581); experiment: Evaluation of inhibitory activity against MET (TR-FRET); format: biochemical; conditions: TR-FRET kinase assay, cMET protein
Chain of cMET (P08581 25-1390): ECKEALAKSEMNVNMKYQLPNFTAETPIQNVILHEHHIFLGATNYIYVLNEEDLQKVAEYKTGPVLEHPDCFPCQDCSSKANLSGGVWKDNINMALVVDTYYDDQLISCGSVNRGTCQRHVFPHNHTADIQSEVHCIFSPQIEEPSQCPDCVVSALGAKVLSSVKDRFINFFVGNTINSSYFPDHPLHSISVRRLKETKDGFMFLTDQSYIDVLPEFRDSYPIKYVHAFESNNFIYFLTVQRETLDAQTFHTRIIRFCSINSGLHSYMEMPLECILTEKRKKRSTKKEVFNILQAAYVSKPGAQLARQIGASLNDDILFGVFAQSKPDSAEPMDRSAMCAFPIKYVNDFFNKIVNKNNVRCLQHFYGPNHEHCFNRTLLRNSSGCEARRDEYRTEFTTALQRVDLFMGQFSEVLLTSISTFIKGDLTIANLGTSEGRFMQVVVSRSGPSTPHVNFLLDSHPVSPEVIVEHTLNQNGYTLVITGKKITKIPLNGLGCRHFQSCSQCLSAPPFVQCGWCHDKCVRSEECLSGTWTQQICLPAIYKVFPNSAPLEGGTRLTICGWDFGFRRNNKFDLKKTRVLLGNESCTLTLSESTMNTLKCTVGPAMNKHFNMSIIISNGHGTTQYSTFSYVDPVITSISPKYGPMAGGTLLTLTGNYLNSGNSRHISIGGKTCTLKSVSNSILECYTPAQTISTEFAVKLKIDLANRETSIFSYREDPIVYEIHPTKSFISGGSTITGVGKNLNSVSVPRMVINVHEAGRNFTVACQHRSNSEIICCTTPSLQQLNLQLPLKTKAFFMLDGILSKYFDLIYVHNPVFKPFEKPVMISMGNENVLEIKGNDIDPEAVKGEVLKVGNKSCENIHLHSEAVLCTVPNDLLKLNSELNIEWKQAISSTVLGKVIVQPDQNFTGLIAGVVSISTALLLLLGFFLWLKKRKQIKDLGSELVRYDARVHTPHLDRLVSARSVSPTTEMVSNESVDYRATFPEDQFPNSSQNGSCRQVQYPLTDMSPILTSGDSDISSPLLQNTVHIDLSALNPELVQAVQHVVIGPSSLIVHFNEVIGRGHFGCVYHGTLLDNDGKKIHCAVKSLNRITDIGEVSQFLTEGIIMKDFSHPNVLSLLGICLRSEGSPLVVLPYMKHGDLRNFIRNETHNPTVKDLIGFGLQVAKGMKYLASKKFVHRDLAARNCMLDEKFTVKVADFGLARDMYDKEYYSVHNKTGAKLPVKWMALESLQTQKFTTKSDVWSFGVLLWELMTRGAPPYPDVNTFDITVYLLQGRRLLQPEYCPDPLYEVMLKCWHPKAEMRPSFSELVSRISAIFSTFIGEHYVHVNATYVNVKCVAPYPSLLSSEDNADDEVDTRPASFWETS
Description: In addition, in order to measure the enzyme activity inhibition for cMET, the evaluation was performed in the same manner as the enzyme activity inhibition measurement experiment for the RON.
as §1, with “a 1× kinase” for “a 1×kinase”, “7.4), 0.05% BSA, 0.005%” for “7.4), 0.01%”, “Tween-20, 1” for “Tween-20, 5”, “mM MnCl2, 20” for “mM Na3VO4, 2 mM EGTA, 10”
The cMET protein was diluted to a concentration of 263 nM with a cMET storage buffer (50 mM Tris-HCl (pH 7.5), 150 mM NaCl, 0.05% Brij35, 1 mM DTT, 10% Glycerol), and then diluted again to a concentration of 2 nM with a 1× kinase reaction buffer. As a substrate cocktail, a MET-specific substrate mixture (5 uM TK peptide, […]) at a concentration 2 times the final reaction concentration.
as §2
as §3, with “of 2” for “of 0.4”, “nM cMET” for “nM RON”, “of 90” for “of 30”, “The […]” for “The IC50”

Chain of RON (Q04912 25-1400, species assumed): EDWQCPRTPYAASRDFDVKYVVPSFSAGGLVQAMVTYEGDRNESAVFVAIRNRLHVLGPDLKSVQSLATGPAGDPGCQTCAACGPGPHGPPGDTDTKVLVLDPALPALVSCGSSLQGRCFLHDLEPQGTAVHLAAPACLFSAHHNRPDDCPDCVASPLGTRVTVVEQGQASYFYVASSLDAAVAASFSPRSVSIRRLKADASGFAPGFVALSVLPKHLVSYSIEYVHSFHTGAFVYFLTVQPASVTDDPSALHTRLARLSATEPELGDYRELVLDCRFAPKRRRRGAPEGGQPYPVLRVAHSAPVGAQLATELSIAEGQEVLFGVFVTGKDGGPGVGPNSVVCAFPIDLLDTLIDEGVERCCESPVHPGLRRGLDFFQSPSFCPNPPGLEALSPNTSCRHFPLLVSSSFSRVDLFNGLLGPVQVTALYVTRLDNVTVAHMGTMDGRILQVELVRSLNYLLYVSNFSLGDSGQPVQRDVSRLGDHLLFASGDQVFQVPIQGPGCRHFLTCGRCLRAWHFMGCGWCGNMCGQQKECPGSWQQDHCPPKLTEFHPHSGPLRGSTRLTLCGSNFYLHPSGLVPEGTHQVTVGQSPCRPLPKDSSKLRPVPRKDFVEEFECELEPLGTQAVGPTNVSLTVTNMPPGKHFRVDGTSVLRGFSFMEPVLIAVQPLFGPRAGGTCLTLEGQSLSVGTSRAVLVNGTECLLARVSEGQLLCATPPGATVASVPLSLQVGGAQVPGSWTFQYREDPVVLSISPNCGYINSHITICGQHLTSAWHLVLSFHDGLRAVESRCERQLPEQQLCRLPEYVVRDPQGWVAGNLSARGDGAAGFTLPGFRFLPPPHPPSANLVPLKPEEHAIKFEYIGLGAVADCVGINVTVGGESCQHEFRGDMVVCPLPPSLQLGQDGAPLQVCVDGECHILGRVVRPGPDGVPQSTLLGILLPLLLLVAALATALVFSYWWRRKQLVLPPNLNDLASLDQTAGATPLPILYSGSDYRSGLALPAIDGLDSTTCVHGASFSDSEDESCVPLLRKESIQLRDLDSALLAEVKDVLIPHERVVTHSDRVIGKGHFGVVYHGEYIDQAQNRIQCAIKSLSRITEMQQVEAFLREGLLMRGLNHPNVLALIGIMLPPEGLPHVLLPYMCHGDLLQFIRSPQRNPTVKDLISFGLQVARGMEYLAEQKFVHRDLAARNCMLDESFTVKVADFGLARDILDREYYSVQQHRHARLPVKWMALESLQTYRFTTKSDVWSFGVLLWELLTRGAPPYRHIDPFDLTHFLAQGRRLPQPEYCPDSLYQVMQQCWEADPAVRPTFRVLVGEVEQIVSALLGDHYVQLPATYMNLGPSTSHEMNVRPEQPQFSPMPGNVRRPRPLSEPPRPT

Q: Which IC50 (RON) does the source give for `O=C(Nc1ccc(Oc2ccnc3[nH]c(=O)n(C4CCOCC4)c23)c(F)c1)c1cnn(-c2ncccc2F)c1C(F)(F)F` [Example 39, N-(3-fluoro-4-((2-oxo-1-(tetrahydro-2H-pyran-4-yl)-2,3-dihydro-1H-imidazo[4,5-b]pyridine-7-yl)oxy)phenyl)-1-(3-fluoropyridine-2-yl)-5-(trifluoromethyl)-1H-pyrazole-4-carboxamide] here?
A: < 50 nM

Q: What about the IC50 (cMET) of the same compound?
A: 500 to 5000 nM

Q: What does the source list for `O=C(Nc1ccc(Oc2ccnc3[nH]c(=O)n(C4CCOC4)c23)c(F)c1)c1cnn(-c2ncccc2F)c1C(F)(F)F` (centres unmarked) [Example 40, N-(3-fluoro-4-((2-oxo-1-(tetrahydrofuran-3-yl)-2,3-dihydro-1H-imidazo[4,5-b]pyridine-7-yl)oxy)phenyl)-1-(3-fluoropyridine-2-yl)-5-(trifluoromethyl)-1H-pyrazole-4-carboxamide]?
A: IC50 (RON): < 50 nM; IC50 (cMET): 500 to 5000 nM

Q: Which IC50 (RON) does the source give for `CC(C)n1c(=O)[nH]c2nccc(Oc3ccc(NC(=O)c4cnn(-c5cc(F)ccn5)c4C(F)(F)F)cc3F)c21` [Example 38, N-(3-fluoro-4-((1-isopropyl-2-oxo-2,3-dihydro-1H-imidazo[4,5-b]pyridine-7-yl)oxy)phenyl)-1-(4-fluoropyridine-2-yl)-5-(trifluoromethyl)-1H-pyrazole-4-carboxamide] here?
A: < 50 nM

Q: And the IC50 (cMET)?
A: > 5000 nM

Q: Which results are given for `CC(C)n1c(=O)[nH]c2nccc(Oc3ccc(NC(=O)c4cnn(-c5cc(C6=CCOCC6)ccn5)c4C(F)(F)F)cc3F)c21` [Example 32, 1-(4-(3,6-dihydro-2H-pyran-4-yl)pyridine-2-yl)-N-(3-fluoro-4-((1-isopropyl-2-oxo-2,3-dihydro-1H-imidazo[4,5-b]pyridine-7-yl)oxy)phenyl)-5-(trifluoromethyl)-1H-pyrazole-4-carboxamide]?
A: IC50 (RON): 50 to 500 nM; IC50 (cMET): 500 to 5000 nM

Q: Which IC50 (RON) does the source give for `CN1CCC(n2c(=O)[nH]c3nccc(Oc4ccc(NC(=O)c5cnn(-c6ncccc6F)c5C(F)(F)F)cc4F)c32)CC1` [Example 41, N-(3-fluoro-4-((1-(1-methylpiperidine-4-yl)-2-oxo-2,3-dihydro-1H-imidazo[4,5-b]pyridine-7-yl)oxy)phenyl)-1-(3-fluoropyridine-2-yl)-5-(trifluoromethyl)-1H-pyrazole-4-carboxamide] here?
A: < 50 nM

Q: And the IC50 (cMET)?
A: > 5000 nM

Q: For `COc1ccc(-n2ncc(C(=O)Nc3ccc(Oc4ccnc5[nH]c(=O)n(C(C)C)c45)c(F)c3)c2C(F)(F)F)nc1` [Example 34, N-(3-fluoro-4-((1-isopropyl-2-oxo-2,3-dihydro-1H-imidazo[4,5-b]pyridine-7-yl)oxy)phenyl)-1-(5-methoxypyridine-2-yl)-5-(trifluoromethyl)-1H-pyrazole-4-carboxamide], which IC50 (RON) is on record?
A: 50 to 500 nM

Q: And the IC50 (cMET)?
A: > 5000 nM

Q: How did the IC50 (RON) turn out when `CCc1cccnc1-n1ncc(C(=O)Nc2ccc(Oc3ccnc4[nH]c(=O)n(C(C)C)c34)c(F)c2)c1C(F)(F)F` [Example 29, 1-(3-ethylpyridine-2-yl)-N-(3-fluoro-4-((1-isopropyl-2-oxo-2,3-dihydro-1H-imidazo[4,5-b]pyridine-7-yl)oxy)phenyl)-5-(trifluoromethyl)-1H-pyrazole-4-carboxamide] was run?
A: < 50 nM

Q: What about the IC50 (cMET) of the same compound?
A: 500 to 5000 nM

Q: With `CC(C)n1c(=O)[nH]c2nccc(Oc3ccc(NC(=O)c4cnn(-c5cc(C6CC6)ccn5)c4C(F)(F)F)cc3F)c21` [Example 31, 1-(4-cyclopropylpyridine-2-yl)-N-(3-fluoro-4-((1-isopropyl-2-oxo-2,3-dihydro-1H-imidazo[4,5-b]pyridine-7-yl)oxy)phenyl)-5-(trifluoromethyl)-1H-pyrazole-4-carboxamide] as the compound, how does the IC50 (RON) read?
A: 50 to 500 nM

Q: What about the IC50 (cMET) of the same compound?
A: 500 to 5000 nM

Q: For `Cc1cccc(-n2ncc(C(=O)Nc3ccc(Oc4ccnc5[nH]c(=O)n(C(C)C)c45)c(F)c3)c2C(F)(F)F)n1` [Example 18, N-(3-fluoro-4-((1-isopropyl-2-oxo-2,3-dihydro-1H-imidazo[4,5-b]pyridine-7-yl)oxy)phenyl)-1-(6-methylpyridine-2-yl)-5-(trifluoromethyl)-1H-pyrazole-4-carboxamide], which IC50 (RON) is on record?
A: < 50 nM

Q: What about the IC50 (cMET) of the same compound?
A: 500 to 5000 nM

Q: `CC(C)n1c(=O)[nH]c2nccc(Oc3ccc(NC(=O)c4cnn(-c5ccc(Cl)cn5)c4C(F)(F)F)cc3F)c21` [Example 11, 1-(5-chloropyridine-2-yl)-N-(3-fluoro-4-((1-isopropyl-2-oxo-2,3-dihydro-1H-imidazo[4,5-b]pyridine-7-yl)oxy)phenyl)-5-(trifluoromethyl)-1H-pyrazole-4-carboxamide] was tested. Which IC50 (RON) did it give?
A: 50 to 500 nM

Q: What about the IC50 (cMET) of the same compound?
A: > 5000 nM

Q: How did the IC50 (RON) turn out when `Cc1ccc(-n2ncc(C(=O)Nc3ccc(Oc4ccnc5[nH]c(=O)n(C(C)C)c45)c(F)c3)c2C(F)(F)F)nc1` [Example 9, N-(3-fluoro-4-((1-isopropyl-2-oxo-2,3-dihydro-1H-imidazo[4,5-b]pyridine-7-yl)oxy)phenyl)-1-(5-methylpyridine-2-yl)-5-(trifluoromethyl)-1H-pyrazole-4-carboxamide] was run?
A: 50 to 500 nM

Q: What about the IC50 (cMET) of the same compound?
A: > 5000 nM

Q: Which IC50 (RON) does the source give for `Cc1ccnc(-n2ncc(C(=O)Nc3ccc(Oc4ccnc5[nH]c(=O)n(C(C)C)c45)c(F)c3)c2C(F)(F)F)n1` [Example 26, N-(3-fluoro-4-((1-isopropyl-2-oxo-2,3-dihydro-1H-imidazo[4,5-b]pyridine-7-yl)oxy)phenyl)-1-(4-methylpyrimidine-2-yl)-5-(trifluoromethyl)-1H-pyrazole-4-carboxamide] here?
A: < 50 nM

Q: And the IC50 (cMET)?
A: 500 to 5000 nM

Q: For `CC(C)n1c(=O)[nH]c2nccc(Oc3ccc(NC(=O)c4cnn(-c5ncccc5Cl)c4C(F)(F)F)cc3F)c21` [Example 10, 1-(3-chloropyridine-2-yl)-N-(3-fluoro-4-((1-isopropyl-2-oxo-2,3-dihydro-1H-imidazo[4,5-b]pyridine-7-yl)oxy)phenyl)-5-(trifluoromethyl)-1H-pyrazole-4-carboxamide], which IC50 (RON) is on record?
A: < 50 nM

Q: What about the IC50 (cMET) of the same compound?
A: 500 to 5000 nM

Q: What does the source list for `Cc1ccnc(-n2ncc(C(=O)Nc3ccc(Oc4ccnc5[nH]c(=O)n(C(C)C)c45)c(F)c3)c2C(F)(F)F)c1` [Example 14, N-(3-fluoro-4-((1-isopropyl-2-oxo-2,3-dihydro-1H-imidazo[4,5-b]pyridine-7-yl)oxy)phenyl)-1-(4-methylpyridine-2-yl)-5-(trifluoromethyl)-1H-pyrazole-4-carboxamide]?
A: IC50 (RON): < 50 nM; IC50 (cMET): > 5000 nM

Q: What does the source list for `CCc1c(C(=O)Nc2ccc(Oc3ccnc4[nH]c(=O)[nH]c34)c(F)c2)cnn1-c1cncnc1` [Example 1, 5-ethyl-N-(3-fluoro-4-((2-oxo-2,3-dihydro-1H-imidazo[4,5-b]pyridine-7-yl)oxy)phenyl)-1-(pyrimidine-5-yl)-1H-pyrazole-4-carboxamide]?
A: IC50 (RON): > 5000 nM; IC50 (cMET): > 5000 nM

Q: What does the source list for `Cc1cnc(-n2ncc(C(=O)Nc3ccc(Oc4ccnc5[nH]c(=O)n(C(C)C)c45)c(F)c3)c2C(F)(F)F)nc1` [Example 36, N-(3-fluoro-4-((1-isopropyl-2-oxo-2,3-dihydro-1H-imidazo[4,5-b]pyridine-7-yl)oxy)phenyl)-1-(5-methylpyrimidine-2-yl)-5-(trifluoromethyl)-1H-pyrazole-4-carboxamide]?
A: IC50 (RON): < 50 nM; IC50 (cMET): 500 to 5000 nM
